Data reported in US5733890A, “Adenylate analogs as potent anti-herpes virus agents” (National Science Council, priority 1996, dated 1998).
Values after ≈ are worked out from the molar mass of the structure shown. Like-named read-outs stand apart in the source and are kept apart here.

Tests used:
[1] = Solubility in H2O (phosphate buffer); conditions: for water solubility (in words): from Table 2; for solubility in H2O: phosphate buffer 0.10M, 20 h, UV absorbance; for solubility at 20 h: 0.10 m phosphate buffer, aqueous buffer
Procedure: Each compound (70 mg) listed in Table 2 was agitated in a 25-mL volumetric flask with phosphate buffer (0.10M, 5.0 mL) for 20 h. This solution was filtered from undissolved solid through a sintered glass funnel (4.0-5.5 mesh ASTM) and the concentration of the solution was determined by UV absorbance (Table 2).

[2] = target: T1, calf mucosal adenosine deaminase (EC 3.5.4.4) (Bos taurus, UniProt P56658); assay: Deamination kinetics of compounds as substrates of adenosine deaminase; assay type: biochemical; conditions: for adenosine deaminase substrate / deamination by / resistance to adenosine deaminase: in words; for rel Vmax: relative, 37 = 1; for deamination by / resistance to adenosine deaminase: in vitro; for complex formation with adenosine deaminase: Table 1
T1 construct: calf mucosal adenosine deaminase; from tissue; host or cells: calf mucosa
T1 sequence (P56658 1-363): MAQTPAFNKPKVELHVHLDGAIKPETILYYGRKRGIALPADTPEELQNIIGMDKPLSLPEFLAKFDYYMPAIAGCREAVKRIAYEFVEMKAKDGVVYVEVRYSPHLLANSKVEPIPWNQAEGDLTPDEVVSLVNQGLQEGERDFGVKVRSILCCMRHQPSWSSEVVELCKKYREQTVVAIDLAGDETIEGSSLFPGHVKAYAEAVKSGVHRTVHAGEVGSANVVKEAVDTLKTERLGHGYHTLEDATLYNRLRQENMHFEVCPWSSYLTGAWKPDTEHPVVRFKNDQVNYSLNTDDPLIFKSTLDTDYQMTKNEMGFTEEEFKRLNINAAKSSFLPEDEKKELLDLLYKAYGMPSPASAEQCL
From the text: (§1) By following an established procedure [Ogilvie, K. K.; Nguyen-Ba, N.; Gillen, M. F.; Radatus, B. K.; Cheriyan, U. O.; Hanna, H. R.; Smith, K. O.; Galloway, K. S. Synthesis of A Purine Acyclonucleoside Series Having Pronounced Antiviral Activity. The Glyceropurines. Can. J. Chem. 1984, 62, 241-252.], we determined the rates of deamination of VI, 13, 37, 40, and 42 in the presence of calf mucosal adenosine deaminase (EC 3.5.4.4) in buffer solutions.

[3] = target: T1, calf mucosal adenosine deaminase (EC 3.5.4.4); assay: Competitive inhibition of adenosine deaminase; assay type: biochemical; conditions: for type of inhibition of adenosine deaminase / Ki: Ara-A 37 used as substrate; for Ki: Kaplan method
From the text: as §1

[4] = test system: herpes simplex type 1 virus (HSV-1); assay: Inhibition of cytopathogenicity of HSV-1 in Hela cell culture; assay type: cell-based; conditions: for IC50: read-out: IC50 HSV-1 (KOS)
Procedure: (§2) We tested the synthesized compounds for their inhibition of cytopathogenicity of herpes simplex type 1 virus (HSV-1), herpes simplex type 2 virus (HSV-2), and varicella-zoster virus (VZV) in Hela cell culture. These compounds include VI, 12, 13, 40, 42, a mixture of VI and 13 (1:1), ara-A 37, and a mixture of 13 and 37 (1:1). Toxicity of these compounds was evaluated by their ability to cause morphological changes in cells at different concentrations.

[5] = Partition coefficient (lipophilicity), 1-pentanol / phosphate buffer; conditions: P = [Substrate]1-pentanol/[Substrate]H2O
Procedure: The layers were separated, and their concentrations were determined by an UV spectrophotometer.
^a Partition coefficients were calculated as follows:
P = [Substrate]1pentanol /[Substrate]H.sbsb.2O.

[6] = Toxicity: morphological changes in Hela cells; assay type: cell-based; conditions: human; Hela cells; average of triplicate determinations; read-out: IC50 Hela cell (concentration required to cause microscopically visible change or disruption in about 50% of the cell sheet)
Procedure: as §2
(§3) ^b Concentration of the compound required to cause microsopically
(§4) visible change or disruption in about 50% of the cell sheet; and […]

Hela cell = assay: Toxicity: morphological changes in Hela cells; assay type: cell-based; conditions: in comparison with Ara-A 37
Procedure: as §2, §3, §4

[7] = test system: herpes simplex type 2 virus (HSV-2); assay: Inhibition of cytopathogenicity of HSV-2 in Hela cell culture; assay type: cell-based; conditions: for IC50: read-out: IC50 HSV-2 (G)
Procedure: as §2

[8] = test system: varicella-zoster virus (VZV); assay: Inhibition of cytopathogenicity of VZV in Hela cell culture; assay type: cell-based; conditions: for IC50: read-out: IC50 VZV (YS)
Procedure: as §2

HSV-1, HSV-2 and VZV = assay: Anti-herpes activity in Hela cell culture (all viruses of Table 3); assay type: cell-based; conditions: for effect on antiviral activity by mixing with compound 13: mixed with compound 13 (Table 3)
Procedure: as §2

viral replication = conditions: background; cited from earlier work
acute type B hepatitis = conditions: background; cited from earlier work
[9] = background; cited from earlier work
adenosine deaminase = conditions: background; cited from earlier work
[10] = Human alphaherpesvirus 1, strain KOS, Hela cell culture, average of triplicate determinations
[11] = Human alphaherpesvirus 2, strain G, Hela cell culture, average of triplicate determinations
[12] = Human alphaherpesvirus 3, strain YS, Hela cell culture, average of triplicate determinations

SMILES	water solubility (in words) [1]	solubility in H2O [1] [µg/mL]	adenosine deaminase substrate [2]	rel Vmax [2]	type of inhibition of adenosine deaminase [3]	Ki [3] [µM]	antiviral activity against HSV-1 (in words) ([4]; Hela cell culture)	IC50 [4, 10] [µg/mL]	log P [5]	CC50 [6] [µg/mL]	cellular toxicity (in words) (Hela cell)	antiviral activity against HSV-2 (in words) ([7]; Hela cell culture)	IC50 [7, 11] [µg/mL]	antiviral activity against VZV (in words) ([8]; Hela cell culture)	IC50 [8, 12] [µg/mL]	solubility at 20 h [1] [µg/mL]	deamination by / resistance to adenosine deaminase [2]	complex formation with adenosine deaminase [2]	effect on antiviral activity by mixing with compound 13 (HSV-1, HSV-2 and VZV)	inhibition of viral replication (viral replication)	also measured
Nc1ncnc2c1ncn2COCCP(=O)(O)O [Compound 13, 2-[(Adenin-9-yl)methoxy]ethylphosphonic Acid]	higher water solubility	13640 (≈ 49900 µM)	adenosine deaminase substrates	1.49 × 10^-6	competitive inhibition	18.2	exhibit antiviral activity	3.98 (≈ 14.6 µM)	0.07	215 (≈ 787 µM)	lower cellular toxicity	exhibit antiviral activity	5.86 (≈ 21.5 µM)	exhibit antiviral activity	16 (≈ 58.6 µM)						Vmax compared with that of VI (times less) ([2]; versus VI): ~ 10^-4 times less; inhibition of adenosine deaminase (in words) ([3]; Table 1): inhibits adenosine deaminase; efficiency as inhibitor of adenosine deaminase versus acyclonucleoside VI ([3]; compared with VI): acted more efficiently than acyclonucleoside VI
COC(=O)C(C)NP(=O)(CCOCn1cnc2c(N)ncnc21)OC1C(CO)OC(n2cnc3c(N)ncnc32)C1O [Compound 42, 9-(β-D-Arabinofuranosyl)adenine-3'-[(Methoxyalaninyl)[2-(adenin-9-ylmethoxy)ethyl]phosphonates]]	higher water solubility						exhibit antiviral activity	0.38 (≈ 0.625 µM)	0.87	215 (≈ 355 µM)	lower cellular toxicity	exhibit antiviral activity	0.88 (≈ 1.45 µM)	exhibit antiviral activity	4.82 (≈ 7.93 µM)	8250 (≈ 13600 µM)	completely resisted deamination				Km ([2]; adenosine deaminase substrate, buffer solutions): > 1500 µM; antiviral activity (in words) (HSV-1, HSV-2 and VZV; Table 3): superior antiviral activity
Nc1ncnc2c1ncn2COCCO [VI, Acyclic adenosine, reference compound]		1950 (≈ 9320 µM)	adenosine deaminase substrates	1.52 × 10^-2	competitive inhibition	142		4.43 (≈ 21.2 µM)	0.98	266 (≈ 1270 µM)			8.26 (≈ 39.5 µM)		6.5 (≈ 31.1 µM)			can form a complex	synergistic effect	can inhibit viral replication	
Nc1ncnc2c1ncn2COCCP(=O)(O)O[C@H]1[C@H](O)[C@H](n2cnc3c(N)ncnc32)O[C@@H]1CO [Compound 40, 9-(β-D-Arabinofuranosyl)adenine-3'-[[2-(Adenin-9-ylmethoxy)ethyl]phosphonate]]	higher water solubility	2460 (≈ 4710 µM)	a substrate of adenosine deaminase	7.64 × 10^-2			exhibit antiviral activity	8.97 (≈ 17.2 µM)	-0.68	346 (≈ 662 µM)	lower cellular toxicity	exhibit antiviral activity	16.3 (≈ 31.2 µM)	not active against VZV	> 128		slow rate of deamination				Vmax less than that of Ara-A 37 ([2]; versus Ara-A 37): 92%
Nc1ncnc2c1ncn2[C@@H]1O[C@H](CO)[C@@H](O)[C@@H]1O [Compound 37, 9-(β-D-arabinofuranosyl)adenine, reference compound]				1				10.8 (≈ 40.4 µM)	-0.47	98.8 (≈ 370 µM)			> 128		> 128	400 (≈ 1500 µM)		can form a complex	synergistic effect	can inhibit viral replication	potency in treating a patient having acute type B hepatitis (acute type B hepatitis): potent; lipophilicity (in words) [9]: poor lipophilicity; conversion in vivo to hypoxanthine (Ara-Hx) via deamination by adenosine deaminase (adenosine deaminase): converted in vivo to hypoxanthine (Ara-Hx)
CCOP(=O)(O)CCOCn1cnc2c(N)ncnc21.N [Compound 12, Ammonium Ethyl [2-[(Adenin-9-yl)methoxy]ethyl]phosphonate]							exhibit antiviral activity			176	lower cellular toxicity	exhibit antiviral activity		exhibit antiviral activity							IC50 ([4]; Human alphaherpesvirus 1, HeLa): 11.3 µg/mL; IC50 ([7]; Human alphaherpesvirus 2, HeLa): 13.8 µg/mL; IC50 ([8]; Human alphaherpesvirus 3, HeLa): 25 µg/mL
